From patent publication US20060263802A1 (priority 2003, published 2006) come the findings set out here.

Holding throughout (type): binding
Test [1] deals with human monoclonal antibody CRJB.
Test [2] concerns human monoclonal antibody CR57.
Test [3] relates to human monoclonal antibody CRJA.
Test [4] deals with human monoclonal antibody CRJB. This is another data set of the same source.
Test [5] deals with human monoclonal antibody CR57. This is another data set of the same source.
The subject of test [6] is human monoclonal antibody CRJA. The source holds these as a separate data set.

Regarding GVAVSSTYCSTNHDY, the “Binding of CRJB to linear peptide (PEPSCAN-ELISA signal)” value (“Binding of CRJB to linear peptide” below) in test [1] was determined as 114. The “Binding of CR57 to linear peptide (PEPSCAN-ELISA signal)” value (shortened to “Binding of CR57 to linear peptide”) in test [2] stood at 79. For the same sequence, the “Binding of CRJA to linear peptide (PEPSCAN-ELISA signal)” value (“Binding of CRJA to linear peptide” for short) in test [3] was determined as 83. Further, the “Binding of CRJB (10 μg/ml) to looped/cyclic peptide (PEPSCAN-ELISA signal)” value in test [4] was found to be 80. Moreover, the “Binding of CR57 (10 μg/ml) to looped/cyclic peptide (PEPSCAN-ELISA signal)” value in test [5] was 111. Moreover, the “Binding of CRJA (10 μg/ml) to looped/cyclic peptide (PEPSCAN-ELISA signal)” value in test [6] came out at 96.

Take FSYMELKVGYILAIK: the “Binding of CRJB to linear peptide” value in test [1] is given as 112. The “Binding of CR57 to linear peptide” value in test [2] is listed as 89. In addition, in test [3], the “Binding of CRJA to linear peptide” value is listed as 120. Further, the “Binding of CRJB (10 μg/ml) to looped/cyclic peptide (PEPSCAN-ELISA signal)” value in test [4] is recorded as 72. Further, the “Binding of CR57 (10 μg/ml) to looped/cyclic peptide (PEPSCAN-ELISA signal)” value in test [5] is 104. The “Binding of CRJA (10 μg/ml) to looped/cyclic peptide (PEPSCAN-ELISA signal)” value in test [6] came out at 96.

As to ENYTNFVGYVTTTFK, the “Binding of CRJB to linear peptide” value in test [1] was found to be 112. The “Binding of CR57 to linear peptide” value in test [2] is recorded as 44. The “Binding of CRJA to linear peptide” value in test [3] is recorded as 80. Further, the “Binding of CRJB (10 μg/ml) to looped/cyclic peptide (PEPSCAN-ELISA signal)” value in test [4] came out at 80. Also, in test [5], the “Binding of CR57 (10 μg/ml) to looped/cyclic peptide (PEPSCAN-ELISA signal)” value is on record as 60. Besides, in test [6], the “Binding of CRJA (10 μg/ml) to looped/cyclic peptide (PEPSCAN-ELISA signal)” value is 58.

In the case of SGVAVSSTYCSTNHD, the “Binding of CRJB to linear peptide” value in test [1] is 110. Further, the “Binding of CR57 to linear peptide” value in test [2] was determined as 79. The “Binding of CRJA to linear peptide” value in test [3] worked out at 84. The “Binding of CRJB (10 μg/ml) to looped/cyclic peptide (PEPSCAN-ELISA signal)” value in test [4] worked out at 55. The “Binding of CR57 (10 μg/ml) to looped/cyclic peptide (PEPSCAN-ELISA signal)” value in test [5] stood at 79. In addition, the “Binding of CRJA (10 μg/ml) to looped/cyclic peptide (PEPSCAN-ELISA signal)” value in test [6] was 90.

With TNLSGFSYMELKVGY, the “Binding of CRJB to linear peptide” value in test [1] is 106. In test [2], the “Binding of CR57 to linear peptide” value is 43. Besides, the “Binding of CRJA to linear peptide” value in test [3] was determined as 102. Further, in test [4], the “Binding of CRJB (10 μg/ml) to looped/cyclic peptide (PEPSCAN-ELISA signal)” value was determined as 107. Further, the “Binding of CR57 (10 μg/ml) to looped/cyclic peptide (PEPSCAN-ELISA signal)” value in test [5] is 39. For the same sequence, the “Binding of CRJA (10 μg/ml) to looped/cyclic peptide (PEPSCAN-ELISA signal)” value in test [6] is listed as 85.

Consider LGPWSPIDIHHLSCP, for which the “Binding of CRJB to linear peptide” value in test [1] came out at 112. Moreover, the “Binding of CR57 to linear peptide” value in test [2] was determined as 69. The “Binding of CRJA to linear peptide” value in test [3] is 84. In addition, the “Binding of CRJB (10 μg/ml) to looped/cyclic peptide (PEPSCAN-ELISA signal)” value in test [4] came to 83. Moreover, the “Binding of CR57 (10 μg/ml) to looped/cyclic peptide (PEPSCAN-ELISA signal)” value in test [5] was determined as 88. In test [6], the “Binding of CRJA (10 μg/ml) to looped/cyclic peptide (PEPSCAN-ELISA signal)” value is given as 72.

Consider PDYRWLRTVKTTKES, for which the “Binding of CRJB to linear peptide” value in test [1] is given as 85. The “Binding of CR57 to linear peptide” value in test [2] stood at 76. In test [3], the “Binding of CRJA to linear peptide” value came to 83. Besides, the “Binding of CRJB (10 μg/ml) to looped/cyclic peptide (PEPSCAN-ELISA signal)” value in test [4] is given as 72. Further, the “Binding of CR57 (10 μg/ml) to looped/cyclic peptide (PEPSCAN-ELISA signal)” value in test [5] was found to be 79. Besides, the “Binding of CRJA (10 μg/ml) to looped/cyclic peptide (PEPSCAN-ELISA signal)” value in test [6] stood at 90.

Turning to FTCTGVVTEAENYTN, the “Binding of CRJB to linear peptide” value in test [1] was 125. The “Binding of CR57 to linear peptide” value in test [2] amounted to 83. In test [3], the “Binding of CRJA to linear peptide” value was determined as 91. For the same sequence, the “Binding of CRJB (10 μg/ml) to looped/cyclic peptide (PEPSCAN-ELISA signal)” value in test [4] came out at 96. Further, the “Binding of CR57 (10 μg/ml) to looped/cyclic peptide (PEPSCAN-ELISA signal)” value in test [5] was 123. The “Binding of CRJA (10 μg/ml) to looped/cyclic peptide (PEPSCAN-ELISA signal)” value in test [6] amounted to 96.

Take NGIILGPDGNVLIPE: the “Binding of CRJB to linear peptide” value in test [1] was found to be 146. Further, the “Binding of CR57 to linear peptide” value in test [2] was 102. Also, in test [3], the “Binding of CRJA to linear peptide” value is listed as 89. Moreover, the “Binding of CRJB (10 μg/ml) to looped/cyclic peptide (PEPSCAN-ELISA)” value in test [4] is 85. For the same sequence, the “Binding of CR57 (10 μg/ml) to looped/cyclic peptide (PEPSCAN-ELISA)” value in test [5] worked out at 104. Also, in test [6], the “Binding of CRJA (10 μg/ml) to looped/cyclic peptide (PEPSCAN-ELISA)” value is 85.

RLGMSCDIFTNSRGK: in test [1], the “Binding of CRJB to linear peptide” value was 106. In test [2], the “Binding of CR57 to linear peptide” value is reported as 88. Moreover, the “Binding of CRJA to linear peptide” value in test [3] came to 92. For the same sequence, the “Binding of CRJB (10 μg/ml) to looped/cyclic peptide (PEPSCAN-ELISA signal)” value in test [4] is listed as 104. The “Binding of CR57 (10 μg/ml) to looped/cyclic peptide (PEPSCAN-ELISA signal)” value in test [5] was found to be 105. In addition, the “Binding of CRJA (10 μg/ml) to looped/cyclic peptide (PEPSCAN-ELISA signal)” value in test [6] came out at 110.

As for SCDIFTNSRGKRASK, the “Binding of CRJB to linear peptide” value in test [1] was determined as 111. In addition, the “Binding of CR57 to linear peptide” value in test [2] was 44. Besides, in test [3], the “Binding of CRJA to linear peptide” value came to 89. Further, the “Binding of CRJB (10 μg/ml) to looped/cyclic peptide (PEPSCAN-ELISA signal)” value in test [4] was 79. Also, the “Binding of CR57 (10 μg/ml) to looped/cyclic peptide (PEPSCAN-ELISA signal)” value in test [5] turned out to be 1. The “Binding of CRJA (10 μg/ml) to looped/cyclic peptide (PEPSCAN-ELISA signal)” value in test [6] came out at 57.

As for TKSVSFRRLSHLRKL, the “Binding of CRJB to linear peptide” value in test [1] stood at 125. Moreover, the “Binding of CR57 to linear peptide” value in test [2] amounted to 83. Further, the “Binding of CRJA to linear peptide” value in test [3] was 103. In test [4], the “Binding of CRJB (10 μg/ml) to looped/cyclic peptide (PEPSCAN-ELISA)” value is 94. Also, the “Binding of CR57 (10 μg/ml) to looped/cyclic peptide (PEPSCAN-ELISA)” value in test [5] is given as 88. The “Binding of CRJA (10 μg/ml) to looped/cyclic peptide (PEPSCAN-ELISA)” value in test [6] stood at 91.
